Literature values as cited in patent EP0147926B1, “Oral anti-cancer compositions” (priority 1983, dated 1985).

Tests used:
ADJ/PC6A plasmacytoma = conditions: administered orally
[1] = system: P388 lymphocytic leukaemia; conditions: administered orally

N.N.O=C([O-])C1(C(=O)[O-])CCC1.[Pt+2] [cis-[diammine-(1,1-cyclobutanedicarboxylato)platinum(II)l]
activity (ADJ/PC6A plasmacytoma): insignificant activity
activity [1]: insignificant activity
